Measurements as given in PubChem BioAssay AID248 (DTP/NCI, 2004).
Values joined by “and” are separate entries in the source; they are usually repeats but may differ in a detail not shown here. Equal values may be shown once. Inconclusive results and toxic doses are left out. No stated cut-off is given here; in the data, active means T/C of 150% or more; inactive means T/C below 125%.

System: L1210 leukemia ip in BDF1 mice, survival T/C
Assay: NCI In Vivo Anticancer Drug Screen. Data for tumor model L1210 Leukemia (intraperitoneal) in B6D2F1 (BDF1) mice
Settings: endpoint: mean survival time, higher = longer survival
In short: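 Value reflects the ratio of survival in compound-treated mice to survival in vehicle-treated controls, with both groups carrying the same transplanted tumor.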

[1] = dose: 50.0 mg/kg/injection, schedule: Q01DX009 (ip), vehicle: saline with Tween-80
[2] = dose: 25.0 mg/kg/injection, schedule: Q04DX003 (ip), vehicle: saline with Tween-80
[3] = dose: 50.0 mg/kg/injection, schedule: Q04DX003 (ip), vehicle: saline with Tween-80
[4] = dose: 12.5 mg/kg/injection, schedule: Q01DX009 (ip), vehicle: saline with Tween-80
[5] = dose: 25.0 mg/kg/injection, schedule: Q01DX009 (ip), vehicle: saline with Tween-80

Measured: T/C

CCOC(=O)c1c[nH]c2c(Cl)cc(Cl)cc2c1=O
inactive: dose: 100.0 mg/kg/injection, schedule: Q01DX001 (ip), vehicle: other 104 % of control | dose: 200.0 mg/kg/injection, schedule: Q01DX001 (ip), vehicle: other 95 % of control | dose: 400.0 mg/kg/injection, schedule: Q01DX001 (ip), vehicle: other 101 % of control

COc1cc(C(=O)NOCc2cc3c(cc2Cl)OCO3)cc(OC)c1OC
inactive: dose: 200.0 mg/kg/injection, schedule: Q04DX003 (ip), vehicle: saline sonified 92 % of control | dose: 400.0 mg/kg/injection, schedule: Q04DX003 (ip), vehicle: saline sonified 90 % of control

O=C(NCCBr)Nc1ccc([N+](=O)[O-])cc1
inactive: [1] 90 % of control | dose: 100.0 mg/kg/injection, schedule: Q01DX009 (ip), vehicle: saline with Tween-80 87 % of control

CCCCN1C(=S)NC(C)(C)C=C1C
inactive: dose: 12.5 mg/kg/injection, schedule: Q04DX003 (ip), vehicle: saline with Tween-80 95 % of control | [2] 98 % of control | [3] 96 % of control

O=[N+]([O-])c1ccc(C=Nc2ccccc2)s1
inactive: dose: 100.0 mg/kg/injection, schedule: Q04DX003 (ip), vehicle: Klucel (hydroxypropylcellulose) (HPC) 98 % of control | dose: 200.0 mg/kg/injection, schedule: Q04DX003 (ip), vehicle: Klucel (hydroxypropylcellulose) (HPC) 93 % of control

O=C(/C(=C\Cl)CBr)c1ccccc1
inactive: [4] 88 % of control | [5] 88 % of control | [2] 90 % of control | [1] 90 % of control | [3] 92 % of control | dose: 100.0 mg/kg/injection, schedule: Q04DX003 (ip), vehicle: saline with Tween-80 98 % of control

Cc1ccc(S(=O)(=O)Nc2ncc([N+](=O)[O-])s2)cc1
inactive: [4] 101 % of control | [5] 101 % of control | [1] 98 % of control and 90 % of control
